From ChEMBL document CHEMBL1144903, “Generation of predictive pharmacophore models for CCR5 antagonists: study with piperidine- and piperazine-based compounds as a new class of HIV-1 entry inhibitors” (J Med Chem, 2003)

Biological target: C-C chemokine receptor type 5 (Homo sapiens, UniProt P51681)
Assay: Inhibition of RANTES binding to the human C-C chemokine receptor type 5 (CCR5)

C-C chemokine receptor type 5, sequence (P51681 whole entry): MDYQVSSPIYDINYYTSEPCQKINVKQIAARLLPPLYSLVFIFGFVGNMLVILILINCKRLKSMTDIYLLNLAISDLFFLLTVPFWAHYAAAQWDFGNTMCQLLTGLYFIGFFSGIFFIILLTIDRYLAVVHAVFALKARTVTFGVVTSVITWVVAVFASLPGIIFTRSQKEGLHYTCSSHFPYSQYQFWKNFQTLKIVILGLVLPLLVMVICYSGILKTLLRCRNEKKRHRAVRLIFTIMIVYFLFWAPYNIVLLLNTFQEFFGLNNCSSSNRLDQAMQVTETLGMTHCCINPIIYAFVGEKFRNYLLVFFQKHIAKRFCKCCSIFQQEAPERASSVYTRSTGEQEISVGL

Structure (SMILES) | Ki [nM]
CCO/N=C(/c1ccc(Br)cc1)C1CCN(C2(C)CCN(C(=O)c3c(C)ccc[n+]3[O-])CC2)CC1 | 16
Cc1cccc(C)c1C(=O)N1CCC(C)(N2CCC(Cc3ccc(S(C)(=O)=O)cc3)CC2)CC1 | 33
CCO/N=C(/c1ccc(S(C)(=O)=O)cc1)C1CCN(C2(C)CCN(C(=O)c3c(C)cc[n+]([O-])c3C)CC2)CC1 | 20
CCO/N=C(/c1ccc(Br)cc1)C1CCN(C2(C)CCN(C(=O)c3c(C)cc[nH]c3=O)CC2)CC1 | > 30
CCO/N=C(/c1ccc(Br)cc1)C1CCN(C2(C)CCN(C(=O)c3cccnc3C)CC2)CC1 | 26
CCO/N=C(/c1ccc(Br)cc1)C1CCN(C2(C)CCN(C(=O)c3ccc[n+]([O-])c3C)CC2)CC1 | > 30
CCO/N=C(/c1ccc(F)cc1)C1CCN(C2(C)CCN(C(=O)c3c(C)cc[n+]([O-])c3C)CC2)CC1 | 30
Cc1ccc(CC2CCN(C3(C)CCN(C(=O)c4c(C)cccc4C)CC3)CC2)cc1 | 110
CCO/N=C(/c1ccc(C(F)(F)F)cc1)C1CCN(C2(C)CCN(C(=O)c3c(C)cc[n+]([O-])c3C)CC2)CC1 | 3.8
C[C@H]1CN(C2CCN(C(=O)c3c(F)cccc3I)CC2)CCN1[C@@H](C)c1ccc(I)cc1 | 1300
Cc1cccc(C)c1C(=O)N1CCC(C)(N2CCC(Cc3ccc(I)cc3)CC2)CC1 | 33
CO/N=C(/c1ccc(Br)cc1)C1CCN(C2(C)CCN(C(=O)c3c(C)ncnc3C)CC2)CC1 | 4.7
CCO/N=C(/c1ccc(Cl)cc1)C1CCN(C2(C)CCN(C(=O)c3c(C)cc[n+]([O-])c3C)CC2)CC1 | 5.6
Cc1cccc(C)c1C(=O)N1CCC(C)(N2CCC(Cc3ccc(OC(F)(F)F)cc3)CC2)CC1 | 55
CCO/N=C(/c1ccc(Br)cc1)C1CCN(C2(C)CCN(C(=O)c3ccc[n+]([O-])c3)CC2)CC1 | > 30
Cc1cccc(C)c1C(=O)N1CCC(C)(N2CCN([C@@H](C)c3ccc(C(F)(F)F)cc3)[C@@H](C)C2)CC1 | 1
CO/N=C(/c1ccc(S(C)(=O)=O)cc1)C1CCN(C2(C)CCN(C(=O)c3c(C)cc[n+]([O-])c3C)CC2)CC1 | 30
CCO/N=C(/c1ccc(Br)cc1)C1CCN(C2(C)CCN(C(=O)c3c(C)cc(O)nc3C)CC2)CC1 | 7
CCO/N=C(/c1ccc(Br)cc1)C1CCN(C2(C)CCN(C(=O)c3c(C)ncnc3C)CC2)CC1 | 2.2
CCO/N=C(/c1ccc(Br)cc1)C1CCN(C2(C)CCN(C(=O)c3c(Br)c[n+]([O-])cc3Br)CC2)CC1 | 0.7
CCO/N=C(/c1ccc(Br)cc1)C1CCN(C2(C)CCN(C(=O)c3c(F)cccc3C(F)(F)F)CC2)CC1 | 3
C[C@H]1CN(C2(C)CCN(C(=O)c3c(N)cccc3Cl)CC2)CCN1[C@@H](C)c1ccc(I)cc1 | 12
Cc1cccc(C)c1C(=O)N1CCC(C)(N2CCC(Cc3ccc(Cl)cc3)CC2)CC1 | 68
Cc1cccc(C)c1C(=O)N1CCC(C)(N2CCC(Cc3ccc(C(F)(F)F)cc3)CC2)CC1 | 25
CCO/N=C(/c1ccc(Br)cc1)C1CCN(C2(C)CCN(C(=O)c3cccnc3)CC2)CC1 | > 30
Cc1cccc(C)c1C(=O)N1CCC(C)(N2CCC(C(C)c3ccc(Br)cc3)CC2)CC1 (configuration not stated) | 62
CCO/N=C(/c1ccc(Br)cc1)C1CCN(C2(C)CCN(C(=O)c3c(C)cc(C)nc3O)CC2)CC1 | 43
COc1ccc(CC2CCN(C3(C)CCN(C(=O)c4c(C)cccc4C)CC3)CC2)cc1 | 155
CCO/N=C(/c1ccc(Br)cc1)C1CCN(C2(C)CCN(C(=O)c3c(Cl)c[n+]([O-])cc3Cl)CC2)CC1 | 1.2
Cc1cccc(O)c1C(=O)N1CCC(C)(N2CCN([C@@H](C)c3ccc(I)cc3)[C@@H](C)C2)CC1 | 7

The remaining lines, values ahead:

Ki [nM] | Structure (SMILES)
3.4 | CO/N=C(/c1ccc(Br)cc1)C1CCN(C2(C)CCN(C(=O)c3c(N)cccc3Cl)CC2)CC1
4.5 | CO/N=C(/c1ccc(Br)cc1)C1CCN(C2(C)CCN(C(=O)c3c(C)cccc3N)CC2)CC1
8.8 | CCO/N=C(/c1ccc(Br)cc1)C1CCN(C2(C)CCN(C(=O)c3c(C)c[n+]([O-])cc3C)CC2)CC1
2.3 | CCO/N=C(/c1ccc(Br)cc1)C1CCN(C2(C)CCN(C(=O)c3c(C)cncc3C)CC2)CC1
33 | CCOC(=O)CO/N=C(/c1ccc(Br)cc1)C1CCN(C2(C)CCN(C(=O)c3c(C)cccc3C)CC2)CC1
> 30 | Cc1cccc(C)c1C(=O)N1CCC(C)(N2CCC(/C(=N\Oc3ccccc3)c3ccc(Br)cc3)CC2)CC1
0.1 | CCO/N=C(/c1ccc(Br)cc1)C1CCN(C2(C)CCN(C(=O)c3c(C)cc(-c4ccncc4)cc3C)CC2)CC1
2 | CO/N=C(/c1ccc(Br)cc1)C1CCN(C2(C)CCN(C(=O)c3c(C)cccc3C)CC2)CC1
4 | Cc1cccc(C)c1C(=O)N1CCC(C)(N2CCC(/C(=N\OC(C)C)c3ccc(Br)cc3)CC2)CC1
1.1 | CCO/N=C(/c1ccc(Br)cc1)C1CCN(C2(C)CCN(C(=O)c3c(C)ccnc3C)CC2)CC1
2 | CCO/N=C(/c1ccc(Br)cc1)C1CCN(C2(C)CCN(C(=O)c3c(C)cccc3C)CC2)CC1
19 | CO/N=C(/c1ccc(Br)cc1)C1CCN(C2(C)CCN(C(=O)c3c(C)cc[n+]([O-])c3C)CC2)CC1
33 | CNC(=O)CO/N=C(/c1ccc(Br)cc1)C1CCN(C2(C)CCN(C(=O)c3c(C)cccc3C)CC2)CC1
8 | C=C(c1ccc(Br)cc1)C1CCN(C2(C)CCN(C(=O)c3c(C)cccc3C)CC2)CC1
9 | Cc1cccc(C)c1C(=O)N1CCC(C)(N2CCC(/C(=N\OC(C)(C)C)c3ccc(Br)cc3)CC2)CC1
1.1 | CO/N=C(/c1ccc(Br)cc1)C1CCN(C2(C)CCN(C(=O)c3c(C)ccnc3C)CC2)CC1
360 | Cc1cccc(C)c1C(=O)N1CCC(C)(N2CCC(Cc3ccc(-c4ccccc4)cc3)CC2)CC1
